In patent US9861099B2, “Composition for enhancing plant disease control effect of monosaccharide” (MITSUI CHEMICALS AGRO, INC., priority 2013, dated 2018):

How the values were obtained:
Format in all cases: in vivo
[1] = tested on: Pseudoperonospora cubensis; test: Cucumber downy mildew (CDM) control test; conditions: for control effect against cucumber downy mildew: Test Example 10, D-tagatose only; for Evaluation Score CDM: Table 8: D-tagatose liquid preparation with assistant (5 parts), 10-fold dilution (D-tagatose 0.5%+assistant 0.5%), improvement vs D-tagatose only
Plasmopara viticola = test: Grape vine downy mildew (VDM) control test; conditions: for control effect against grape vine downy mildew: Test Example 10, D-tagatose only; for preventive value VDM: Table 9: monosaccharide 10% liquid preparation, no assistant, 10-fold dilution (monosaccharide 1%)
Sphaerotheca cucurbitae = test: Cucumber powdery mildew (CPM) control test; conditions: for control effect against cucumber powdery mildew: Test Example 10, D-tagatose only; for preventive value CPM: Table 9: monosaccharide 10% liquid preparation, no assistant, 10-fold dilution (monosaccharide 1%)
Puccinia recondita = test: Wheat brown rust (WR) control test
Phytophthora infestans = conditions: for preventive value LB: Table 9: monosaccharide 10% liquid preparation, no assistant, 10-fold dilution (monosaccharide 1%)
[2] = tested on: Blumeria graminis f sp. hordei; test: Barley powdery mildew (BPM) control test; conditions: Test Example 10, D-tagatose only
Procedure: (BPM: Barley Powdery Mildew) Test plants (barley variety: Sekishinryoku) were planted followed by cultivating until the second leaf appeared. In the test, dilutions (5 ml/pot) obtained by diluting with distilled water so that each formula reached a prescribed concentration were sprayed. After inoculating the seedlings one day after spraying by shaking off conidia of Blumeria graminis f sp. hordei onto the seedlings, disease development was investigated 7 days after, and the effects thereof were evaluated. Disease development was evaluated using the following indicators for disease control tests evaluated according to the methods described above. Furthermore, preventive values were calculated based on the disease development.

Phakopsora ampelopsidis = test: Grape vine rust (VR) control test; conditions: Test Example 10, D-tagatose only, treatment concentration 5%
Procedure: (VR: Vine Rust) Test plants (grape variety: Neomuscat) were planted followed by cultivating until three to four first leaves appeared. In the test, dilutions (5 ml/pot) obtained by diluting with distilled water so that each formula reached a prescribed concentration were sprayed. After inoculating the seedlings one day after spraying by spraying with 1×10^7 organisms/ml of uredospores of Phakopsora ampelopsidis, the seedlings were allowed to stand for about 24 hours in an inoculation room at a room temperature of 20° C. to 23° C. to promote the onset of disease. Disease development was investigated 12 days after inoculation, and the effects thereof were evaluated. Disease development was evaluated using the following indicators for disease control tests evaluated according to the methods described above. Furthermore, preventive values were calculated based on the disease development.

Phakopsora pachyrhizi = test: Soybean rust (SR) control test; conditions: Test Example 10, D-tagatose only, treatment concentration 5%
Botrytis cinerea = test: Tomato gray mold (GM) control test; conditions: for preventive value GM: Table 9: monosaccharide 10% liquid preparation, no assistant, 10-fold dilution (monosaccharide 1%)
Procedure: (GM: Gray Mold) Test plants (tomato variety: Oogata Fukuju) were planted followed by cultivating until three first leaves appeared. In the test, dilutions (5 ml/pot) obtained by diluting with distilled water so that each formula reached a prescribed concentration were sprayed. After inoculating the seedlings one day after spraying by spraying with 1×10^7 organisms/ml of conidia of Botrytis cinerea, the seedlings were allowed to stand for about 48 hours in an inoculation room at a room temperature of 20° C. to 23° C. to promote the onset of disease. Disease development was investigated 2 days after inoculation, and the effects thereof were evaluated. Disease development was evaluated using the following indicators for disease control tests evaluated according to the methods described above. Furthermore, preventive values were calculated based on the disease development.

Magnaporthe grisea = conditions: for preventive value B: Table 9: monosaccharide 10% liquid preparation, no assistant, 10-fold dilution (monosaccharide 1%)
[3] = tested on: Colletotrichum orbiculare; test: Cucumber anthracnose (CA) control test; conditions: Test Example 10, D-tagatose only, treatment concentration 5%
Procedure: (CA: Cucumber Anthracnose) Test plants (cucumber variety: Sagami Hanjiro) were planted followed by cultivating until the first leaf appeared. In the test, dilutions (5 ml/pot) obtained by diluting with distilled water so that each formula reached a prescribed concentration were sprayed. After inoculating the seedlings one day after spraying by spraying with 1×10^7 organisms/ml of conidia of Colletotrichum orbiculare, the seedlings were allowed to stand for about 24 hours in an inoculation room at a room temperature of 20° C. to 23° C. to promote the onset of disease. Disease development was investigated 10 days after inoculation, and the effects thereof were evaluated. Disease development was evaluated using the following indicators for disease control tests evaluated according to the methods described above. Furthermore, preventive values were calculated based on the disease development.

Venturia inaequalis = test: Apple scab (AS) control test; conditions: for preventive value AS: Table 9: monosaccharide 10% liquid preparation, no assistant, 10-fold dilution (monosaccharide 1%)
Procedure: (AS: Apple Scab) Test plants (apple variety: Ohrin) were planted followed by cultivating until four first leaves appeared. In the test, dilutions (5 ml/pot) obtained by diluting with distilled water so that each formula reached a prescribed concentration were sprayed. After inoculating the seedlings one day after spraying by spraying with 1×10^5 organisms/ml of conidia of Venturia inaequalis, the seedlings were allowed to stand for about 24 hours in an inoculation room at a room temperature of 18° C. to 20° C. to promote the onset of disease. Disease development was investigated 10 days after inoculation, and the effects thereof were evaluated. Disease development was evaluated using the following indicators for disease control tests evaluated according to the methods described above. Furthermore, preventive values were calculated based on the disease development.

Septoria tritici = test: Wheat septoria leaf blotch (SLB) control test; conditions: Test Example 10, D-tagatose only, treatment concentration 5%
Procedure: (SLB: Septoria Leaf Blotch) Test plants (wheat variety: Norin 61) were planted followed by cultivating until the second leaf appeared. In the test, dilutions (5 ml/pot) obtained by diluting with distilled water so that each formula reached a prescribed concentration were sprayed. After inoculating the seedlings one day after spraying by spraying with 1×10^7 organisms/ml of conidia of Septoria tritici, the seedlings were allowed to stand for about 24 hours in an inoculation room at a room temperature of 18° C. to promote the onset of disease. Disease development was investigated 14 days after inoculation, and the effects thereof were evaluated. Disease development was evaluated using the following indicators for disease control tests evaluated according to the methods described above. Furthermore, preventive values were calculated based on the disease development.

Pythium aphanidermatum = test: Pythium red blight of bentgrass, soil irrigation treatment; conditions: Comparative Example, main agent only (D-tagatose 80 parts), no assistant; 100-fold dilution, soil irrigation 3 L/m^2; five days after inoculation
Procedure: The effects of the D-tagatose water-soluble powders containing anionic surfactant prepared in Example 11 on grass red blight were evaluated. Test plants (grass variety: Bentgrass) were planted, and three weeks later, cut to a height of 1 cm prior to use in the test. In the test, after inoculating the seedlings with Pythium aphanidermatum preliminarily cultured in wheat bran medium, dilutions obtained by diluting each formula 100-fold with well water were used to treat soil by irrigating at 3 L/m^2 (treatment concentrations: D-tagatose 0.8%+assistant 0.2%). After investigating the onset of disease five days after inoculation, control values were calculated from the diseased area. Effects were evaluated using the same evaluation method as Test Example 10.

Pythium ultimum = test: Cabbage damping-off, soil irrigation treatment; conditions: formula containing D-tagatose only, 80-fold dilution (D-tagatose 1%)
Procedure: The effects of the D-tagatose water-soluble powders containing anionic surfactant prepared in Example 11 on […] were evaluated. Test soil was inoculated by contacting with Pythium ultimum preliminarily cultured in wheat bran medium followed by planting the test plants (cabbage variety: Shikidori) therein. The soil was treated by irrigating at 3 L/m^2 with the formulations which had been 80-fold diluted with well water (treatment concentrations: D-tagatose 1%+assistant 0.25%). […] Effects were evaluated using the same evaluation method as Test Example 1. The protective value with respect to cabbage damping-off of a formula containing D-tagatose only was 29.9.

[4] = tested on: Rhizoctonia solani AGI-IA; test: Rice sheath blight (SB) control test; conditions: Table 9: monosaccharide 10% liquid preparation, no assistant, 10-fold dilution (monosaccharide 1%)
Procedure: (SB: Sheath Blight) Test plants (rice variety: Sachikaze) were planted followed by cultivating until the third leaf appeared. In the test, dilutions (5 ml/pot) obtained by diluting with distilled water so that each formula reached a prescribed concentration were sprayed. After inoculating the seedlings one day after spraying with clumps of Rhizoctonia solani AGI-IA cultured for 14 days in oat medium, the seedlings were allowed to stand for about 24 hours in an inoculation room at a room temperature of 28° C. to promote the onset of disease. Disease development was investigated 14 days after inoculation, and the effects thereof were evaluated. Disease development was evaluated using the following indicators for disease control tests evaluated according to the methods described above. Furthermore, preventive values were calculated based on the disease development.

Ralstonia solanacearum = conditions: Table 9: monosaccharide 10% liquid preparation, no assistant, 10-fold dilution (monosaccharide 1%)
[5] = Test Example 12, D-tagatose 5 parts + Assistant 1 5 parts, 10-fold dilution (D-tagatose 0.5% + Assistant 1 0.5%)
[6] = formula containing D-tagatose only, treatment concentration 0.8%
[7] = Test Example 10, D-tagatose only, treatment concentration 5%

## O=C(CO)[C@@H](O)[C@@H](O)[C@H](O)CO [D-tagatose, reference compound]
[1]; treatment concentration 0.8%
  control effect against cucumber downy mildew: not adequate
[1]; treatment concentration 5%
  control effect against cucumber downy mildew: high control effect
[1]; [5]
  Protective Value Index CDM, Assistant 1: 2 (Preventive value of 60 to less than 80)
[1]; formula containing D-tagatose only, treatment concentration 0.4%
  preventive value, cucumber downy mildew: about 50 (40 to 60)
Plasmopara viticola; treatment concentration 0.8%
  control effect against grape vine downy mildew: not adequate
Plasmopara viticola; treatment concentration 5%
  control effect against grape vine downy mildew: high control effect
Plasmopara viticola; [5]
  Protective Value Index VDM, Assistant 1: 1 (Preventive value of 30 to less than 60)
Plasmopara viticola; [6]
  preventive value, grape vine downy mildew: about 40 (30 to 50)
Sphaerotheca cucurbitae; treatment concentration 0.8%
  control effect against cucumber powdery mildew: not adequate
Sphaerotheca cucurbitae; treatment concentration 5%
  control effect against cucumber powdery mildew: high control effect
Sphaerotheca cucurbitae; [5]
  Protective Value Index CPM, Assistant 1: 2 (Preventive value of 60 to less than 80)
Sphaerotheca cucurbitae; [6]
  preventive value, cucumber powdery mildew: about 50 (40 to 60)
Puccinia recondita; [7]
  effects against wheat rust: not adequate
Puccinia recondita; [6]
  preventive value, wheat rash: about 5 (0 to 10)
Phytophthora infestans; [7]
  effects against tomato late blight: not adequate
[2]; treatment concentration 0.8%
  control effect against barley powdery mildew: not adequate
[2]; treatment concentration 5%
  control effect against barley powdery mildew: high control effect
Phakopsora ampelopsidis
  effects against grape vine rust: not adequate
Phakopsora pachyrhizi
  effects against soybean rust: not adequate
Botrytis cinerea; [7]
  effects against tomato gray mold: not adequate
Magnaporthe grisea; [7]
  effects against rice blast: not adequate
[3]
  effects against cucumber anthracnose: not adequate
Venturia inaequalis; [7]
  effects against apple scab: not adequate
Septoria tritici
  effects against wheat speckled leaf blotch: not adequate
Pythium aphanidermatum
  Preventive Value Indices, bentgrass red blight: 1 (Preventive value of 30 to less than 60)
Pythium ultimum
  protective value, cabbage damping-off: 29.9

## O=C(CO)[C@H](O)[C@H](O)[C@H](O)CO [D-psicose]
[1]
  Evaluation Score CDM: 3 (Improvement in preventive value of 20 to less than 30)
Plasmopara viticola
  preventive value VDM: (0)
Sphaerotheca cucurbitae
  preventive value CPM: (17)
Phytophthora infestans
  preventive value LB: (47)
Botrytis cinerea
  preventive value GM: (50)
Magnaporthe grisea
  preventive value B: (50)
Venturia inaequalis
  preventive value AS: (50)
[4]
  preventive value SB: (40)

## OC[C@H]1OC(O)[C@H](O)[C@H](O)[C@@H]1O (stereo partly drawn) [D-allose]
Plasmopara viticola
  preventive value VDM: (40)
Sphaerotheca cucurbitae
  preventive value CPM: (17)
Phytophthora infestans
  preventive value LB: (60)
Botrytis cinerea
  preventive value GM: (33)
Magnaporthe grisea
  preventive value B: (40)
Venturia inaequalis
  preventive value AS: (66)
[4]
  preventive value SB: (60)

## O=C(CO)[C@H](O)[C@@H](O)[C@H](O)CO [D-sorbose]
[1]
  Evaluation Score CDM: 2 (Improvement in preventive value of 10 to less than 20)
Plasmopara viticola
  preventive value VDM: (0)
Sphaerotheca cucurbitae
  preventive value CPM: (17)
Phytophthora infestans
  preventive value LB: (33)
Botrytis cinerea
  preventive value GM: (33)
Magnaporthe grisea
  preventive value B: (17)
Venturia inaequalis
  preventive value AS: (33)
[4]
  preventive value SB: (40)

## O=C[C@H](O)[C@@H](O)[C@@H](O)[C@H](O)CO [D-galactose]
[1]
  Evaluation Score CDM: 1 (Improvement in preventive value of 1 to less than 10)
Plasmopara viticola
  preventive value VDM: (0)
Sphaerotheca cucurbitae
  preventive value CPM: (0)
Phytophthora infestans
  preventive value LB: (0)
Botrytis cinerea
  preventive value GM: (33)
Magnaporthe grisea
  preventive value B: (17)
Venturia inaequalis
  preventive value AS: (66)
[4]
  preventive value SB: (60)
Ralstonia solanacearum
  preventive value TBW: (25)
